Measured values: patent publication EP0364819A2, “LHRH analogs” (The Administrators of The Tulane Educational Fund, priority 1988, dated 1990)

How the values were obtained:
[1] = target: T1, membrane receptors of human breast cancer cells (Homo sapiens, UniProt P30968); experiment: Receptor binding to human breast cancer cell membranes with 125I-labeled [D-Trp6]LHRH; details: high affinity binding sites, ¹²⁵l-labeled [D-Trp⁶]LHRH
T1 construct: human prostate and breast cancer cell membranes; endogenous in cells
T1 sequence (P30968 1-328): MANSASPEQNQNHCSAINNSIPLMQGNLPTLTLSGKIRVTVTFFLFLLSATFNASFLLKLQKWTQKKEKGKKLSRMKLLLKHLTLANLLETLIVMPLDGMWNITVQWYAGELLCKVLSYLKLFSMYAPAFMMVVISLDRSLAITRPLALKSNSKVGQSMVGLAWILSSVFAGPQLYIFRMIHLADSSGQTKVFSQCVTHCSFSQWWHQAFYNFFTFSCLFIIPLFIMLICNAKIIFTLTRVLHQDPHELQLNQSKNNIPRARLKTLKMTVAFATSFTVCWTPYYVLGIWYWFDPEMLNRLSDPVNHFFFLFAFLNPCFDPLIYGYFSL
Description: (c)Affinity for peptides to human prostate and breast cancer cell membranes.
(§1) This is determined by using labelled LHRH and [D-Trp⁶]LHRH. The assay is carried out similarly to that described by T. Kadar et al., Proc. Natl. Acad. Sci. USA, 85, 890-894 (1988).
(§2) Table 2 presents the antiovulatory activity of the claimed compounds having LHRH-inhibiting properties. The inhibitory action was determined in vivo, in 4-day cycling rats as described [A. Corbin and C. W. Beattie, Endocr. Res. Commun., 2, 1-23 (1975)]. Affinities of the claimed compounds to membrane receptors of rat pituitary and human breast cancer cells are also given in Tables 1 and 2 as determined by using [[…],D-Trp⁶]LHRH.

[2] = target: T2, membrane receptors of rat pituitary (Rattus norvegicus, UniProt P30969); experiment: Receptor binding to rat pituitary membranes with 125I-labeled [D-Trp6]LHRH; details: high affinity binding sites, pituitary of male rats, ¹²⁵l-labeled [D-Trp⁶]LHRH
T2 construct: membrane receptors of rat pituitary; from tissue; host or cells: rat pituitary membranes
T2 sequence (P30969 1-327): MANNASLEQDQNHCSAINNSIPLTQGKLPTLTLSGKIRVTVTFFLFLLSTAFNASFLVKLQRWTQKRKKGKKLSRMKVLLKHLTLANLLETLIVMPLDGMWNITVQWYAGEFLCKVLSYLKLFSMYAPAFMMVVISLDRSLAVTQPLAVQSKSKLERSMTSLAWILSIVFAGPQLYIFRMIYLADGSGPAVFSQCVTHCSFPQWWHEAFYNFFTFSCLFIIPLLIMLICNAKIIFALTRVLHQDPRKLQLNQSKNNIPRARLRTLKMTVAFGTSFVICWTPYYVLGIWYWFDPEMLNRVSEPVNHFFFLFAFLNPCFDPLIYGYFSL
Description: as §1, §2

[3] = system: dispersed rat pituitary cell superfusion system; experiment: LH release in dispersed rat pituitary cell superfusion system (LHRH agonistic activity); format: cell-based; details: peptide infused for 3 minutes at various concentration; LH released compared to that released by 3 nM LHRH
Description: The ability of compounds to influence LH release in vitro is assayed by using a superfused rat pituitary cell system [S. Vigh and A. V. Schally, Peptides, 5 Suppl.
The peptide was infused for 3 minutes at various concentration, and the amount of LH released was compared to that released by 3 nM LHRH.

[4] = system: rat mammary tumor cell line MT-4; experiment: Inhibition of 3H-thymidine incorporation into DNA of MT-4 monolayer cultures; format: cell-based; details: for DPM/Well x1000: mean +/- standard error
Description: (d) Ability of peptides of Formula I to inhibit incorporation of [³H]thymidine into DNA of monolayer cultures the rat mammary tumor cell line MT-4
This is assayed as described [V. K. Sondak et al., Cancer Research, 44, 1725-1728 (1984); F. Holzel et al., J. Cancer Res. Clin. Oncol. 109, 217-226 (1985); M. Albert et al., J. Cancer Res. Clin. Oncol. 109, 210-216 (1985)].
To obtain information about the cytotoxic properties of the compounds, the inhibition of ³H-thymidine incorporation into DNA of monolayer cultures of the rat mammary tumor cell line MT-4 was studied. Experiments started with 100 K MT-4 cells/plate on day 0. Dose was changed 3 times, total incubation time with the sample was 5 days. 1µCu ³H-thymidine/ml was added on day 4.

[5] = Table 2, antagonistic analogues
[6] = DME Medium + 0% Serum (plus additives), Dose 1 ng/ml (6x10⁻¹⁰M)
[7] = DME Medium + 0% Serum (plus additives), Dose 10 ng/ml
[8] = DME Medium + 0% Serum (plus additives), Dose 100 ng/ml
[9] = DME Medium + 0% Serum (plus additives), Dose 1000 ng/ml
[10] = DME Medium + 0% Serum (plus additives), Dose 2000 ng/ml
[11] = DME Medium + 10% Serum, Dose 1 ng/ml (6x10⁻¹⁰M)
[12] = DME Medium + 10% Serum, Dose 10 ng/ml
[13] = DME Medium + 10% Serum, Dose 100 ng/ml
[14] = DME Medium + 10% Serum, Dose 1000 ng/ml
[15] = DME Medium + 10% Serum, Dose 2000 ng/ml

Ac-D-Nal(2)-D-Phe(4Cl)-D-Pal(3)-Ser-Arg-D-Lys[(Cu⁺⁺)(SAL)₂(A₂bu-Eac)]-Leu-Arg-Pro-D-Ala-NH₂ [XXVIII]
Binding affinity, Ka1, for membrane receptors of cancer cells [1, 5]: 0.192 nM-¹

Ac-D-Nal(2)-D-Phe(4Cl)-D-Pal(3)-Ser-Arg-D-Lys[(PtCl₂)-A₂bu-Eac)]-Leu-Arg-Pro-D-Ala-NH₂ [XXVII]
Binding affinity, Ka1, for membrane receptors of cancer cells [1, 5]: 2.152 nM-¹

Ac-D-Nal(2)D-Phe(4Cl)-D-Pal(3)-Ser-Arg-D-Lys[(Ni⁺⁺)(SAL)₂(DL-A₂pr)]-Leu-Arg-Pro-D-Ala-NH₂ [XIII]
Binding affinity, Ka1, for membrane receptors of pituitary [2, 5]: 1.821 nM-¹ | Binding affinity, Ka1, for membrane receptors of cancer cells [1, 5]: 0.878 nM-¹

pGlu-His-Trp-Ser-Tyr-D-Lys [(Ni⁺⁺)(CISAL)₂(D-A₂pr)]-Leu-Arg-Pro-Gly-NH₂ [Example X]
Hormonal activity* LH responses rel. to LHRH (= 1) [3]: 4 | Binding affinity, Ka1, for membrane receptors of pituitary ([2]; Table 1, agonistic analogues): 4.513 nM⁻¹ | Binding affinity, Ka1, for membrane receptors of cancer cells ([1]; Table 1, agonistic analogues): 2.236 nM⁻¹

pGlu-His-Trp-Ser-Tyr-D-Lys[(Cu²²)(CISAL)₂(DL-A₂pr)]-Leu-Arg-Pro-Gly-NH₂ [Example IX]
Hormonal activity* LH responses rel. to LHRH (= 1) [3]: 10 | Binding affinity, Ka1, for membrane receptors of pituitary ([2]; Table 1, agonistic analogues): 8.625 nM⁻¹ | Binding affinity, Ka1, for membrane receptors of cancer cells ([1]; Table 1, agonistic analogues): 3.995 nM⁻¹

pGlu-His-Trp-Ser-Tyr-D-Lys[(Cu⁺⁺)(FUR)₂(DL-A₂pr)]-Leu-Arg-Pro-Gly-NH₂ [XVII]
Hormonal activity* LH responses rel. to LHRH (= 1) [3]: 10 | Binding affinity, Ka1, for membrane receptors of pituitary ([2]; Table 1, agonistic analogues): 1.770 nM⁻¹ | Binding affinity, Ka1, for membrane receptors of cancer cells ([1]; Table 1, agonistic analogues): 0.536 nM⁻¹

pGlu-His-Trp-Ser-Tyr-D-Lys[(Cu⁺⁺)(PEN) ₂(A₂pr)]-Leu-Arg-Pro-Gly-NH₂ [Example XXI]
Hormonal activity* LH responses rel. to LHRH (= 1) [3]: 10.6 | Binding affinity, Ka1, for membrane receptors of pituitary ([2]; Table 1, agonistic analogues): 10.989 nM⁻¹ | Binding affinity, Ka1, for membrane receptors of cancer cells ([1]; Table 1, agonistic analogues): 5.096 nM⁻¹

pGlu-His-Trp-Ser-Tyr-D-Lys[(Cu⁺⁺)(POL)₂(DL-A₂bu)]-Leu-Arg-Pro-Gly-NH₂ [XXV]
Hormonal activity* LH responses rel. to LHRH (= 1) [3]: 5.5 | Binding affinity, Ka1, for membrane receptors of pituitary ([2]; Table 1, agonistic analogues): 6.405 nM⁻¹ | Binding affinity, Ka1, for membrane receptors of cancer cells ([1]; Table 1, agonistic analogues): 3.141 nM⁻¹

pGlu-His-Trp-Ser-Tyr-D-Lys[(Cu⁺⁺)(POLP)₂(DL-A₂bu)]-Leu-Arg-Pro-Gly-NH₂ [Example XVI]
Hormonal activity* LH responses rel. to LHRH (= 1) [3]: 1.5 | Binding affinity, Ka1, for membrane receptors of pituitary ([2]; Table 1, agonistic analogues): 9.751 nM⁻¹ | Binding affinity, Ka1, for membrane receptors of cancer cells ([1]; Table 1, agonistic analogues): 5.038 nM⁻¹

pGlu-His-Trp-Ser-Tyr-D-Lys[(Cu⁺⁺)(SAL) 2(A₂pr)]-Leu-Arg-Pro-Gly-NH₂ [VIA]
Hormonal activity* LH responses rel. to LHRH (= 1) [3]: 12 | Binding affinity, Ka1, for membrane receptors of pituitary ([2]; Table 1, agonistic analogues): 3.051 nM⁻¹ | Binding affinity, Ka1, for membrane receptors of cancer cells ([1]; Table 1, agonistic analogues): 1.348 nM⁻¹

pGlu-His-Trp-Ser-Tyr-D-Lys[(Cu⁺⁺)(SAL) ₂(A₂pr)]-Leu-Arg-Pro-Gly-NH₂ [Example VII]
Hormonal activity* LH responses rel. to LHRH (= 1) [3]: 10 | Binding affinity, Ka1, for membrane receptors of pituitary ([2]; Table 1, agonistic analogues): 7.968 nM⁻¹ | %Inhibition [4, 6]: 41% | DPM/Well x1000 [4, 6]: 249+/-30.5 DPM/Well x1000 | %Inhibition [4, 7]: 42% | DPM/Well x1000 [4, 7]: 242+/-32.1 DPM/Well x1000 | %Inhibition [4, 8]: 56% | DPM/Well x1000 [4, 8]: 186+/-13.2 DPM/Well x1000 | %Inhibition [4, 9]: 52% | DPM/Well x1000 [4, 9]: 204+/-40.9 DPM/Well x1000 | %Inhibition [4, 10]: 41% | DPM/Well x1000 [4, 10]: 249+/-45.1 DPM/Well x1000 | %Inhibition [4, 11]: 53% | DPM/Well x1000 [4, 11]: 48+/-8.6 DPM/Well x1000 | %Inhibition [4, 12]: 61% | DPM/Well x1000 [4, 12]: 40+/-6.7 DPM/Well x1000 | %Inhibition [4, 13]: 59% | DPM/Well x1000 [4, 13]: 42+/-10.4 DPM/Well x1000 | %Inhibition [4, 14]: 65% | DPM/Well x1000 [4, 14]: 36+/-5.1 DPM/Well x1000 | %Inhibition [4, 15]: 62% | DPM/Well x1000 [4, 15]: 39+/-4.6 DPM/Well x1000 | inhibition of ³H-thymidine incorporation into DNA ([4]; at a concentration of 6x10.⁻¹⁰ M, total incubation time 5 days): strong inhibitory effect | Binding affinity, Ka1, for membrane receptors of cancer cells ([1]; Table 1, agonistic analogues): 3.589 nM⁻¹

pGlu-His-Trp-Ser-Tyr-D-Lys[(Cu⁺⁺)(SAL)₂(DL-A₂bu)]-Leu-Arg-Pro-Gly-NH₂ [XIV]
Hormonal activity* LH responses rel. to LHRH (= 1) [3]: 25 | Binding affinity, Ka1, for membrane receptors of pituitary ([2]; Table 1, agonistic analogues): 5.589 nM⁻¹ | Binding affinity, Ka1, for membrane receptors of cancer cells ([1]; Table 1, agonistic analogues): 1.628 nM⁻¹

pGlu-His-Trp-Ser-Tyr-D-Lys[(Ni⁺⁺)(SAL) 2(A₂pr)]-Leu-Arg-Pro-Gly-NH₂ [VIIIA]
Hormonal activity* LH responses rel. to LHRH (= 1) [3]: 12 | Binding affinity, Ka1, for membrane receptors of pituitary ([2]; Table 1, agonistic analogues): 9.710 nM⁻¹ | Binding affinity, Ka1, for membrane receptors of cancer cells ([1]; Table 1, agonistic analogues): 5.234 nM⁻¹

pGlu-His-Trp-Ser-Tyr-D-Lys[(Ni⁺⁺)(SAL)₂(D-A₂pr)]-Leu-Arg-Pro-Gly-NH₂ [VIIIB]
Hormonal activity* LH responses rel. to LHRH (= 1) [3]: 10 | Binding affinity, Ka1, for membrane receptors of pituitary ([2]; Table 1, agonistic analogues): 6.457 nM⁻¹ | Binding affinity, Ka1, for membrane receptors of cancer cells ([1]; Table 1, agonistic analogues): 3.334 nM⁻¹

pGlu-His-Trp-Ser-Tyr-D-Lys[(PtCl₂)(DL-A₂pr)]-Leu-Arg-Pro-Gly-NH₂ [Example III]
Hormonal activity* LH responses rel. to LHRH (= 1) [3]: 55 | Binding affinity, Ka1, for membrane receptors of pituitary ([2]; Table 1, agonistic analogues): 3.285 nM⁻¹ | Binding affinity, Ka1, for membrane receptors of cancer cells ([1]; Table 1, agonistic analogues): 1.743 nM⁻¹

pGlu-His-Trp-Ser-Tyr-D-Lys[Cu⁺⁺) POL)₂(DL-A₂pr)]-Leu-Arg-Pro-Gly-NH₂ [XVIII]
Hormonal activity* LH responses rel. to LHRH (= 1) [3]: 9 | Binding affinity, Ka1, for membrane receptors of pituitary ([2]; Table 1, agonistic analogues): 5.817 nM⁻¹ | Binding affinity, Ka1, for membrane receptors of cancer cells ([1]; Table 1, agonistic analogues): 3.005 nM⁻¹

pGlu-His-Trp-Ser-Tyr-D-Lys[Cu⁺⁺)(POLP) ₂(A₂pr)]-Leu-Arg-Pro-Gly-NH₂ [XIX]
Hormonal activity* LH responses rel. to LHRH (= 1) [3]: 0.3 | Binding affinity, Ka1, for membrane receptors of pituitary ([2]; Table 1, agonistic analogues): 8.676 nM⁻¹ | Binding affinity, Ka1, for membrane receptors of cancer cells ([1]; Table 1, agonistic analogues): 4.528 nM⁻¹
